Assay results reported in PMC5078989, “Targeted inhibition of the COP9 signalosome for treatment of cancer” (Nature Communications, 2016).

System: panel of cancer cell lines
Experiment: Cell viability (CellTiter-Glo) dose-response across cancer cell line panel;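 also: after 72 h compound incubation with CellTiter-Glo ATP readout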
Format: cell-based, human
Settings: Homo sapiens
Source text: Next, we explored the effect of CSN5 inhibition on the viability of cancer cells. To obtain a comprehensive picture, we generated dose–response curves with a CSN5 inhibitor across more than 500 cancer cell lines in a previously described standardized setting[47] (Supplementary Data 1).
A standardized CellTiter-Glo Assay (Promega #G7570) based on the quantification of ATP was applied according to the manufacturer's protocol to measure the amount of viable cells in culture. In brief, cells were seeded into 384-well plates at optimal density for each cell line. After 4 h, compounds were added at different concentrations in growth medium and incubated for another 72 h in a humidifying chamber at 37 °C and 5% CO2. […] EC50 values were calculated from the plot of percentage of inhibition versus inhibitor concentration using the nonlinear regression analysis software Origin 7.5SR6 (OriginLab Corp.).

COCc1ccccc1NCc1ccc([C@H]2[C@@H](O)CCCc3cncn32)c(-c2ccccc2Cl)c1 [CSN5i-2, (5S,6S)-5-(2′-chloro-5-(((2-(methoxymethyl)phenyl)amino)methyl)-[1,1′-biphenyl]-2-yl)-6,7,8,9-tetrahydro-5H-imidazo[1,5-a]azepin-6-ol]
EC50 (HEC-50B): 200 nM
EC50 (HEC-108): 3130 nM
EC50 (HEC-151): 1280 nM
EC50 (HEC-251, HEC-251): 513 nM
EC50 (HEC-265): 807 nM
EC50 (HEL): 404 nM
EC50 (HEL 92.1.7, HEL 92.1.7): 491 nM
EC50 (HEY A8, Hey-A8): 1990 nM
EC50 (HL-60, HL-60): 871 nM
EC50 (HLC-1): 3330 nM
EC50 (HLE): 1360 nM
EC50 (HLF): 697 nM
EC50 (HMC-1-8): 1110 nM
EC50 (HPAC): 1990 nM
EC50 (HPBALL, HPB-ALL): 1020 nM
EC50 (HRT-18, HRT-18): 1030 nM
EC50 (HSC-2, HSC-2): 892 nM
EC50 (HSC-3, HSC-3): 637 nM
EC50 (HSC-4, HSC-4): 1050 nM
EC50 (HT-29, HT-29): 2390 nM
EC50 (HT-1080, HT-1080): 407 nM
EC50 (Hep3B): 1090 nM
EC50 (Hep 3B2.1-7): 1800 nM
EC50 (Hs 294T): 1950 nM
EC50 (Hs 695T): 700 nM
EC50 (Hs766T, Hs 766T): 10800 nM
EC50 (Hs 852.T): 2200 nM
EC50 (Hs 936.T): 1540 nM
EC50 (Hs 944.T): 778 nM
EC50 (HuG1-N): 14000 nM
EC50 (HuP-T3, HUP-T3): 349 nM
EC50 (Huh-7, HuH-7): 309 nM
EC50 (IGR-37, IGR-37): 4040 nM
EC50 (IGR-39, IGR-39): 1720 nM
EC50 (IGROV-1, IGROV1): 7240 nM
EC50 (IPC-298, IPC-298): 1230 nM
EC50 (IST-MES2): 609 nM
EC50 (Ishikawa): 1550 nM
EC50 (J82, J82): 4930 nM
EC50 (JHH7, JHH-7): 2440 nM
EC50 (JHH-4, JHH-4): 388 nM
EC50 (JHOS-2): > 30000 nM
EC50 (JHUEM-2): 912 nM
EC50 (JHUEM-3): > 30000 nM
EC50 (JIMT-1, JIMT-1): 22600 nM
EC50 (JL-1): 718 nM
EC50 (JU77): 857 nM
EC50 (JVM-2, JVM-2): 553 nM
EC50 (K029AX): 3060 nM
EC50 (KARPAS-422, KARPAS-422): 1750 nM
EC50 (KATO III): 9810 nM
EC50 (KBM-7, KBM-7): 229 nM
EC50 (KCI-MOH1): 797 nM
EC50 (KE-97, KE-97): 547 nM
EC50 (KLE): 1260 nM
EC50 (KM12, KM12): 3470 nM
EC50 (KMM-1, KMM-1): 685 nM
EC50 (KMRC-1, KMRC-1): 1890 nM
EC50 (KMRC-20): 788 nM
EC50 (KMS-11, KMS-11): 215 nM
EC50 (KNS-60): 6140 nM
EC50 (KNS-62, KNS-62): 8050 nM
EC50 (KO52): 861 nM
EC50 (KP-1N): 1110 nM
EC50 (KP-1NL): > 30000 nM
EC50 (KP-2): 942 nM
EC50 (KP-3): 1890 nM
EC50 (KP-4, KP4): 1210 nM
EC50 (KS-1): 9040 nM
EC50 (KU-19-19, KU-19-19): 1970 nM
EC50 (KURAMOCHI): 392 nM
EC50 (KYSE-30, KYSE-30): 1700 nM
EC50 (KYSE-70, KYSE-70): 6040 nM
EC50 (KYSE-150, KYSE-150): 13400 nM
EC50 (KYSE-180, KYSE-180): 2150 nM
EC50 (KYSE-410, KYSE-410): 11000 nM
EC50 (Kasumi-3, Kasumi3): 390 nM
EC50 (Kasumi-6): 4460 nM
EC50 (L3.3): 1390 nM
EC50 (L-363, L-363): 251 nM
EC50 (L-428, L-428): 590 nM
EC50 (LC-1/sq-SF): 24000 nM
EC50 (LC-1F): 6990 nM
EC50 (LC-2-ad, LC2/ad): 3570 nM
EC50 (LCLC-103H): 21500 nM
EC50 (LIM1899): 884 nM
EC50 (LIM2099): 391 nM
EC50 (LIM2405): 2380 nM
EC50 (LIM2550): 1040 nM
EC50 (LMSU): 247 nM
EC50 (LN-18, LN-18): 708 nM
EC50 (LN-229, LN-229): 2600 nM
EC50 (LO68): 3370 nM
EC50 (LOU-NH91, LOU-NH91): 1350 nM
EC50 (LOX IMVI): 952 nM
EC50 (LP-1, LP-1): 1090 nM
EC50 (LS180, LS 180): 448 nM
EC50 (LUDLU-1, LUDLU-1): 3410 nM
EC50 (Li-7, Li-7): 766 nM
EC50 (Lu-65, LU65): 558 nM
EC50 (Lu-99, LU99): 250 nM
EC50 (M-07e): 7180 nM
EC50 (MCAS): 692 nM
EC50 (MCC13): 846 nM
EC50 (MCC14/2): 282 nM
EC50 (MCC26): 1440 nM
EC50 (MDA-MB-134-VI): 694 nM
EC50 (MDA-MB-157, MDA-MB-157): 2490 nM
EC50 (MDA-MB-175-VII): 3510 nM
EC50 (MDA-MB-231, MDA-MB-231): 1580 nM
EC50 (MDA-MB-435S): 4470 nM
EC50 (MDA-MB-436, MDA-MB-436): 387 nM
EC50 (MDA-MB-453, MDA-MB-453): 7120 nM
EC50 (MDA-MB-468, MDA-MB-468): 5940 nM
EC50 (MDST8, MDST8): 1390 nM
EC50 (ME-180, ME180): 630 nM
EC50 (MEC1, MEC-1): 517 nM
EC50 (MEL-HO): 10500 nM
EC50 (MEL-JUSO): 11200 nM
EC50 (MES-SA): 889 nM
EC50 (MFE-280, MFE-280): 5450 nM
EC50 (MFE-296, MFE-296): 518 nM
EC50 (MFE-319): 11100 nM
EC50 (MFM-223, MFM223): 769 nM
EC50 (MG-63, MG-63): 478 nM
EC50 (MIA PaCa-2, MIA PaCa-2): 1810 nM
EC50 (MINO): 204 nM
EC50 (MKN-1, MKN1): 2030 nM
EC50 (MKN-45, MKN-45): 1710 nM
EC50 (ML-2, ML-2): 687 nM
EC50 (MM127): 508 nM
EC50 (MM138): 1520 nM
EC50 (MM170): 11400 nM
EC50 (MM370): 6220 nM
EC50 (MM383): 1190 nM
EC50 (MM386): 2070 nM
EC50 (MM415): 1370 nM
EC50 (MM426): 3040 nM
EC50 (MM466): 2250 nM
EC50 (MM473, MM473): 2220 nM
EC50 (MM485): 521 nM
EC50 (MM537): 2630 nM
EC50 (MM576): 7150 nM
EC50 (MM603): 286 nM
